According to patent US6440903B1, “Substituted 2,4-diamino-1,3,5-triazines as herbicides” (Bayer Aktiengesellschaft, priority 1996, dated 2002):

Tests used:
Assay type in all cases: in vivo
Echinochloa = experiment: Pre-emergence test; details: greenhouse, scored after three weeks
Method: (§1) Pre-emergence Test Solvent: 5 parts by weight of acetone Emulsifier: 1 part by weight of alkylaryl polyglycol ether To produce a suitable preparation of active compound, 1 part by weight of active compound is mixed with the stated amount of solvent, the stated amount of emulsifier is added and the concentrate is diluted with water to the desired concentration. Seeds of the test plants are sown in normal soil. After about 24 hours, the soil is watered with the preparation of active compound. The amount of water per unit area is advantageously kept constant. The concentration of active compound in the preparation is immaterial, only the application rate of active compound per unit area matters. After three weeks, the degree of damage to the plants is scored visually in % damage in comparison to the development of the untreated control. The figures denote: 0%=no effect (like untreated control) 100%=total destruction

Cotton = experiment: Pre-emergence test; details: greenhouse, scored after three weeks
Method: as §1

Solanum = experiment: Pre-emergence test; details: greenhouse, scored after three weeks
Method: as §1

Digitaria = experiment: Pre-emergence test; details: greenhouse, scored after three weeks
Method: as §1

Veronica = experiment: Pre-emergence test; details: greenhouse, scored after three weeks
Method: as §1

Amaranthus [1] = experiment: Pre-emergence test; details: greenhouse, scored after three weeks
Method: as §1

Wheat = experiment: Pre-emergence test; details: greenhouse, scored after three weeks
Method: as §1

Maize [2] = experiment: Pre-emergence test; details: greenhouse, scored after three weeks
Method: as §1

Sinapis [3] = experiment: Pre-emergence test; details: greenhouse, 1000 g of ai./ha, scored after three weeks
Method: as §1

Abutilon [4] = experiment: Pre-emergence test; details: greenhouse, scored after three weeks
Method: as §1

Alopecurus = experiment: Pre-emergence test; details: greenhouse, 500 g of ai./ha, scored after three weeks
Method: as §1

Datura [5] = experiment: Pre-emergence test; details: greenhouse, 500 g of ai./ha, scored after three weeks
Method: as §1

Matricaria = experiment: Pre-emergence test; details: greenhouse, 500 g of ai./ha, scored after three weeks
Method: as §1

Setaria = experiment: Post-emergence test; details: greenhouse, scored after three weeks
Method in brief: (§2)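 Compound formulated in acetone (5 parts) with alkylaryl polyglycol ether emulsifier (1 part) per part active, diluted with water. Plants 5-15 cm tall sprayed at desired rates in 1000 l water/ha. Damage scored visually after three weeks as % versus untreated control (0% no effect, 100% total destruction).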

Galium = experiment: Post-emergence test; details: greenhouse, 1000 g of ai./ha, scored after three weeks
Method in brief: as §2

Avena fatua = experiment: Post-emergence test; details: greenhouse, 1000 g of ai./ha, scored after three weeks
Method in brief: as §2

Amaranthus [6] = experiment: Post-emergence test; details: greenhouse, 1000 g of ai./ha, scored after three weeks
Method in brief: as §2

Xanthium = experiment: Post-emergence test; details: greenhouse, 1000 g of ai./ha, scored after three weeks
Method in brief: as §2

Sinapis [7] = experiment: Post-emergence test; details: greenhouse, 1000 g of ai./ha, scored after three weeks
Method in brief: as §2

Abutilon [8] = experiment: Post-emergence test; details: greenhouse, 1000 g of ai./ha, scored after three weeks
Method in brief: as §2

Polygonum [9] = experiment: Pre-emergence test; details: greenhouse, 500 g of ai./ha, scored after three weeks
Method: as §1

Viola = experiment: Post-emergence test; details: 504 h, greenhouse, 125 g of ai./ha, scored after three weeks, read-out: % damage, Viola
Method in brief: as §2

Maize [10] = experiment: Post-emergence test; details: greenhouse, 125 g of ai./ha, scored after three weeks
Method in brief: as §2

Datura [11] = experiment: Post-emergence test; details: greenhouse, 125 g of ai./ha, scored after three weeks
Method in brief: as §2

Polygonum [12] = experiment: Post-emergence test; details: Polygonum, 504 h, greenhouse, 125 g of ai./ha, scored after three weeks, read-out: % damage, Polygonum
Method in brief: as §2

Chenopodium = experiment: Post-emergence test; details: Chenopodium, 504 h, greenhouse, 125 g of ai./ha, scored after three weeks, read-out: % damage, Chenopodium
Method in brief: as §2

Question: `CC(Nc1nc(N)nc(C(C)(Cl)Cl)n1)c1ccc(Cl)cc1` (stereo not shown) [drawing 99] was tested. Which “% damage, Echinochloa” value (Echinochloa; 1000 g of ai./ha) did it give?
Answer: Its value is 95%.

Question: And the “% damage, Cotton” value (Cotton; 1000 g of ai./ha)?
Answer: Its value is 0%.

Question: What about the “% damage, Solanum” value (Solanum; 1000 g of ai./ha) of the same compound?
Answer: The value was 100%.

Question: And the “% damage, Digitaria” value (Digitaria; 1000 g of ai./ha)?
Answer: Its value is 100%.

Question: And the “% damage, Veronica” value (Veronica; 1000 g of ai./ha)?
Answer: The value was 100%.

Question: And the “% damage, Amaranthus” value (Amaranthus [1]; 1000 g of ai./ha)?
Answer: Its value is 100%.

Question: And the “% damage, Wheat” value (Wheat; 1000 g of ai./ha)?
Answer: The value was 0%.

Question: With `CC(F)c1nc(N)nc(NC(C)c2ccc(Cl)cc2)n1` (stereo not shown) [drawing 94] as the compound, how does the “% damage, Maize” value (Maize [2]; 1000 g of ai./ha) read?
Answer: The value was 0%.

Question: And the “% damage, Amaranthus” value (Amaranthus [1]; 1000 g of ai./ha)?
Answer: The value was 100%.

Question: What about the “% damage, Sinapis” value (Sinapis [3]) of the same compound?
Answer: Its value is 100%.

Question: What about the “% damage, Abutilon” value (Abutilon [4]; 1000 g of ai./ha) of the same compound?
Answer: Its value is 100%.

Question: Which results are given for `CC(F)c1nc(N)nc(NC(C)c2ccc(Cl)cc2)n1` (stereo not shown) [drawing 93]?
Answer: % damage, Alopecurus (Alopecurus): 100%; % damage, Echinochloa (Echinochloa; 500 g of ai./ha): 100%; % damage, Maize (Maize [2]; 500 g of ai./ha): 0%; % damage, Datura (Datura [5]): 100%; % damage, Digitaria (Digitaria; 500 g of ai./ha): 100%; % damage, Matricaria (Matricaria): 100%; % damage, Abutilon (Abutilon [4]; 500 g of ai./ha): 100%

Question: How did the “% damage, Setaria” value (Setaria; 1000 g of ai./ha) turn out when `CC(Nc1nc(N)nc(C(C)(C)F)n1)c1ccc(Cl)cc1` (stereo not shown) [drawing 112] was run?
Answer: The value was 100%.

Question: And the “% damage, Galium” value (Galium)?
Answer: The value was 100%.

Question: And the “% damage, Avena fatua” value (Avena fatua)?
Answer: The value was 100%.

Question: What about the “% damage, Amaranthus” value (Amaranthus [6]) of the same compound?
Answer: Its value is 100%.

Question: What about the “% damage, Xanthium” value (Xanthium) of the same compound?
Answer: The value was 100%.

Question: What about the “% damage, Sinapis” value (Sinapis [7]) of the same compound?
Answer: Its value is 100%.

Question: And the “% damage, Abutilon” value (Abutilon [8])?
Answer: The value was 100%.

Question: With `CC(Nc1nc(N)nc(C(C)(C)F)n1)c1ccc(Cl)cc1` (stereo not shown) [drawing 95] as the compound, how does the “% damage, Maize” value (Maize [2]; 1000 g of ai./ha) read?
Answer: The value was 0%.

Question: And the “% damage, Amaranthus” value (Amaranthus [1]; 1000 g of ai./ha)?
Answer: The value was 90%.

Question: And the “% damage, Sinapis” value (Sinapis [3])?
Answer: The value was 100%.

Question: And the “% damage, Abutilon” value (Abutilon [4]; 1000 g of ai./ha)?
Answer: Its value is 80%.

Question: `CC(Nc1nc(N)nc(C(Cl)Cl)n1)c1ccc(Cl)cc1` (stereo not shown) [drawing 98] was tested. Which “% damage, Echinochloa” value (Echinochloa; 500 g of ai./ha) did it give?
Answer: Its value is 100%.

Question: What about the “% damage, Cotton” value (Cotton; 500 g of ai./ha) of the same compound?
Answer: Its value is 0%.

Question: And the “% damage, Solanum” value (Solanum; 500 g of ai./ha)?
Answer: The value was 100%.

Question: And the “% damage, Digitaria” value (Digitaria; 500 g of ai./ha)?
Answer: Its value is 95%.

Question: What about the “% damage, Polygonum” value (Polygonum [9]) of the same compound?
Answer: Its value is 100%.

Question: And the “% damage, Veronica” value (Veronica; 500 g of ai./ha)?
Answer: The value was 100%.

Question: And the “% damage, Wheat” value (Wheat; 500 g of ai./ha)?
Answer: Its value is 0%.

Question: How did the pest or weed control at 125 g/ha (Viola) turn out when `CC(F)c1nc(N)nc(NC(C)c2ccc(Cl)cc2)n1` (stereo not shown) [drawing 105] was run?
Answer: Its pest or weed control at 125 g/ha is 100%.

Question: And the pest or weed control at 125 g/ha (Setaria; Setaria, 504 h, 125 g of ai./ha, read-out: % damage, Setaria)?
Answer: Its pest or weed control at 125 g/ha is 80%.

Question: And the “% damage, Maize” value (Maize [10])?
Answer: The value was 20%.

Question: What about the “% damage, Datura” value (Datura [11]) of the same compound?
Answer: The value was 100%.

Question: What about the pest or weed control at 125 g/ha (Polygonum [12]) of the same compound?
Answer: Its pest or weed control at 125 g/ha is 100%.

Question: What about the pest or weed control at 125 g/ha (Chenopodium) of the same compound?
Answer: The pest or weed control at 125 g/ha was 100%.

Question: Which results are given for `CC(=O)Nc1nc(NC(C)c2ccc(Cl)cc2)nc(C(F)C(F)(F)F)n1` (stereo not shown) [drawing 97]?
Answer: % damage, Echinochloa (Echinochloa; 500 g of ai./ha): 95%; % damage, Cotton (Cotton; 500 g of ai./ha): 0%; % damage, Digitaria (Digitaria; 500 g of ai./ha): 80%; % damage, Polygonum (Polygonum [9]): 100%; % damage, Veronica (Veronica; 500 g of ai./ha): 100%; % damage, Amaranthus (Amaranthus [1]; 500 g of ai./ha): 100%; % damage, Wheat (Wheat; 500 g of ai./ha): 0%
